{"source": "patent US20060111335A1", "about": "“Photoactivated anti-viral and anti-cancer agent” (priority 2002, published 2006)", "key": {"cells": {"tested_on": "cells", "test": "Phototoxicity, summary statement of Example XII", "assay_type": "cell-based"}, "SINV genomic RNA": {"tested_on": "SINV genomic RNA", "test": "Immunofluorescence assay for SINV capsid protein translated from irradiated viral RNA in BHK cells", "assay_type": "cell-based, Sindbis virus", "conditions": "RNA from virus irradiated with compound", "method": "An immunofluorescence assay was also employed to detect the presence of SINV capsid protein newly translated from the irradiated viral genomic RNA. For these experiments the virus solutions had to be 10 log10 pfu/mL, which is a virus concentration 3 orders of magnitude higher than that used in the previous experiments. Also, the DPPZPHEN solutions had to be prepared in DMSO to maintain the ratio of drug to virus as in the previous experiments. […] SINV RNA from virus that had been either incubated in the dark or irradiated with DPPZPHEN was isolated and transfected into baby hamster kidney cells as described above. Following electroporation, the cells were plated on coverslips and incubated at 37° C. for 12 hours. The cells on the coverslips were then fixed with methanol for 15 minutes and washed twice with 1×PBS buffer. They were then incubated with anti-CP (SINV) polyclonal antibody (Owen et al., J. Virol., 70:2757-2763 (1996)) for 45 minutes at 37° C. After washing three times with 1×PBS buffer the cells were incubated with fluorescein-5-isothiocyanate (FITC) conjugated goat anti-rabbit secondary antibody (obtained from Kirkegaard and Perry, Gaithsburg, Md.) at 37° C. for 45 minutes. […] They were viewed under a Nikon Eclipse TE200 with a TE-FM Epi-fluorescence attachment."}}, "data": [{"smiles": "[Cl-].[Cl][Rh+]12([Cl])([N]3C=CC=c4ccc5c(c43)[N]1C=CC=5)[N]1C=CC=c3c1c1c(c4nc5ccccc5nc34)=CC=C[N]12", "note": "[DPPZPHEN, cis-dichloro(dipyrido[3,2a-2′3′c]phenazine)(1,10-phenantroline) rhodium(III) chloride]", "values": [{"measurement": "phototoxicity", "setting": "cells", "value": "are phototoxic"}, {"measurement": "SINV capsid protein (CP) in transfected BHK cells", "setting": "SINV genomic RNA", "value": "CP was not observed"}]}]}
